Results published in publication PMC7904875, “Identification and Functional Analysis of SlitOBP11 From Spodoptera litura” (Frontiers in Physiology, 2021).
Like-named read-outs stand apart in the source and are kept apart here.

Assays:
Format in all cases: binding
[1] = biological target: T1, SlitOBP11 (Spodoptera litura, UniProt A0A9J7E9A4); assay: competitive displacement of 1-NPN fluorescence
T1 construct: gene LOC111356549; mature protein, predicted 23-residue signal peptide removed; ORF 465 bp, given as 155 aa; pET32a(+) (BamHI/HindIII), E. coli BL21(DE3); Ni-NTA purified, tag cleaved with enterokinase
T1 sequence (A0A9J7E9A4 24-154): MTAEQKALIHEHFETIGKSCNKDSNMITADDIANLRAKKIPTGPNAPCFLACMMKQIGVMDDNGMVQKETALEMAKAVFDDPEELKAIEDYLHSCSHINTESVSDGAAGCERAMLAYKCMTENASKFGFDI

[2] = biological target: T1, SlitOBP11; assay: competitive displacement of 1-NPN fluorescence; conditions: for Ki: read-out: Ki (μmol L^-1)^∗
Excerpt: competitive displacement of 1-NPN fluorescence on SlitOBP11

[3] = biological target: T1, SlitOBP11; assay: fluorescence titration, Scatchard; conditions: read-out: dissociation constant

Row | Molecule | IC50 [1] [µM] | other results
1 | CC/C=C\CCOC(C)=O [Cis-3-hexenyl acetate] | > 50 | 
2 | O=CCc1ccccc1 [Phenylacetaldehyde] |  | IC50 [2]: 43.4 ± 10.1 µM; Ki [2]: 35.8 ± 9.76 µM
3 | CCCCCCCCCCCCCC [Tetradecane] | > 50 | 
4 | CC/C=C/CCCCCCCCCCOC(C)=O [(E)-11-tetradecenly acetate, (E)-11-Tetradecenyl acetate] |  | Ki [2]: 13.5 ± 0.479 µM; IC50 ([1]; read-out: IC50): 15.2 ± 0.54 µM
5 | CCCCCCCCCC=O [Decanal] | > 50 | 
6 | CC(C)CCC(=O)O [4-methylpentanoic acid] | > 50 | 
7 | c1ccc(Nc2cccc3ccccc23)cc1 [1-NPN, 1-N-Phenyl-naphthylamine] |  | Kd [3]: 8.09 ± 0.26 µM
8 | OCCc1ccccc1 [Phenethyl alcohol] | > 50 | 
9 | C=C(C)[C@H]1CC=C(C)CC1 [(R)-(+)-limonene] | > 50 | 
10 | CC(C)CC(=O)O [3-methylbutyric acid] | > 50 | 
11 | CCc1ccccc1 [Ethylbenzene] | > 50 | 
12 | CCCCCCCCCCCCC [Tridecane] | > 50 | 
13 | C/C=C/C/C=C\CCCCCCCCOC(C)=O [(Z, E)-9,12-tetradecadienyl acetate, (Z,E)-9,12-Tetradecadienyl acetate] | 16.2 ± 0.32 | Ki [2]: 14.4 ± 0.317 µM
14 | CC(=O)O [Acetic acid] | > 50 | 
15 | CC1=CCC(C(C)C)C=C1 (stereo not drawn) [Alpha-phellandrene] | > 50 | 
16 | CC1=CCCC(C)(C)C1/C=C/C(C)O (stereo not drawn) [Alpha- ionol] | > 50 | 
17 | OCc1ccccc1 [Benzyl alcohol] | > 50 | 
18 | CCCC(=O)CC [3-hexanone] | > 50 | 
19 | Farnesene |  | IC50 ([1]; 2 μM protein, 2 μM 1-NPN, 30 mM Tris-HCl pH 7.4, 4°C, read-out: IC50): > 50 µM
20 | CC(=O)/C=C/C1=C(C)CCCC1(C)C [Beta-ionone] | > 50 | 
21 | CC(C)C(=O)O [Isobutyric acid] | > 50 | 
22 | CC12CCC(CC1)C(C)(C)O2 [Eucalyptol] | > 50 | 
23 | CCCC/C=C\CCCCCCCCOC(C)=O [(Z)-9-tetradecenyl acetate, (Z)-9-Tetradecenyl acetate] | 11.2 ± 0.55 | Ki [2]: 9.97 ± 0.492 µM
24 | CC(=O)CC/C=C(\C)CCC=C(C)C [Geranylacetone] | > 50 | 

Row | Molecule | IC50 [1] [µM] | other results
25 | CCCCC(C)=O [2-hexanone] | > 50 | 
26 | CCC(C)CC(=O)O (stereo not drawn) [3-methylpentanoic acid] | > 50 | 
27 | CC/C=C/C=C\CCCCCCCCOC(C)=O [(Z, E)-9,11-tetradecadienyl acetate, (Z,E)-9,11-Tetradecadienyl acetate] | 15.6 ± 1.41 | Ki [2]: 13.9 ± 1.44 µM
28 | C=CC(C)(O)CCC=C(C)C (racemic) [(±)-Linalool] |  | IC50 ([1]; read-out: IC50): > 50 µM
29 | O=Cc1ccccc1 [Benzaldehyde] | > 50 | 
30 | CCCCCCCCCCCC [Dodecane] | > 50 | 
31 | C=C(C)[C@H]1CC=C(C)C(=O)C1 [(+)-Carvone] | > 50 | 
32 | CCCC(=O)O [Butyric acid] | > 50 | 
33 | CCCCCC(=O)O [Hexanoic acid] | > 50 | 
34 | CC(=O)OCCc1ccccc1 [Phenethyl acetate] | 48.6 ± 0.52 | Ki [2]: 43.1 ± 0.488 µM
35 | C=CC(=C)CCC=C(C)C [Myrcene] | > 50 | 
36 | CCCCCCC(=O)O [Heptanoic acid] | > 50 | 
37 | COC(=O)c1ccccc1O [Methyl salicylate] | > 50 | 
38 | C=CC(C)(O)CC/C=C(\C)CCC=C(C)C (stereo not drawn) [Trans-nerolidol] | > 50 | 
39 | C/C=C/C(=O)O [Crotonic acid] |  | IC50 ([1]; read-out: IC50 (μmol L^-1), 2 μM protein, 2 μM 1-NPN, 30 mM Tris-HCl pH 7.4, 4°C): > 50 µM
40 | c1ccc2[nH]ccc2c1 [Indole] | > 50 | 
41 | C=C1CC/C=C(\C)CC[C@@H]2[C@@H]1CC2(C)C [Beta-caryophyllene] | > 50 | 
42 | COC(=O)c1ccccc1N [Methyl anthranilate] |  | IC50 ([1]; read-out: IC50): > 50 µM
43 | CC(=O)OC/C=C(\C)CCC=C(C)C [Geranyl acetate] | > 50 | 
44 | CCCCCCCC=O [Octyl aldehyde] | > 50 | 
45 | CCC(=O)O [Propanoic acid] | > 50 | 
46 | CCCCCCCCCCCCCCCCCC [N-octadecane] | > 50 | 
47 | CCCCC(=O)O [Pentanoic acid] | > 50 | 
48 | CC(=O)OCc1ccccc1 [Benzyl acetate] | > 50 | 
